In one assay the test system is liver X receptors. The assay can be described thus: Liver X receptor activity test, (subtype not named). Type of assay: cell-based, human. Particulars: for inverse activation of liver X receptors (in words): summary of Table 1; for activation of liver X receptors (in words): summary of Table 2. How it is done: (§1) (1) Cell culture: human embryonic kidney cells (HEK293T cells) were cultured in DMEM (high glucose) medium containing 10% fetal bovine serum and 1% penicillin-streptomycin under conditions of 37° C. and 5% CO2.
(§2) (2) Transfection: HEK293T cells were seeded in a 96-well plate with a cell density of 2×10^4 cells/well. After 24 hours, the cells were transfected according to instructions of Lipofectamine™ 3000 reagent. The specific steps of transfection were as follows: • (1) adding 15 μL of L3000 reagent to 500 μL of DMEM (high sugar) medium, and vortex oscillating for 2 seconds; • (2) mixing 6.5 μg of pGL3/(DR-4)-c-fos-FF-luc plasmid, 0.13 μg of pCMV/Renilla-luc plasmid, 1.3 μg of pSG5/hLXRα (or pSG5/hLXRβ plasmid), 1.3 μg of pSG5/hRXRα plasmid, and 19 μL of P3000 reagent in 500 μL of DMEM (high sugar) medium; • (3) adding the plasmid mixture to a liposome mixture and standing by at room temperature for 20 minutes; and • (4) adding 10 μL of liposome-DNA solution to each well of the 96-well plate, and gently shaking the 96-well plate to mix well.
(§3) (3) Drug intervention: after 5 hours of transfection, the compounds to be tested were added, and the plate was placed in an incubator to continue culturing for 20 hours.
(§4) (4) Detection: dual-luciferase reporter gene system was used for detection. The specific steps of detection were as follows: • (1) aspirating the original medium in the 96-well plate, adding cell lysate to the 96-well plate at 20 μL/well, and quickly shaking the plate at room temperature for 20 minutes; • (2) adding samples to a 384-well plate at 20 μL/well; • (3) adding firefly luciferase substrate to each well at 10 μL/well, and measuring chemiluminescence after 7 seconds; and • (4) adding Renilla luciferase substrate to the same sample well at 100 μL/well, and measuring chemiluminescence after 7 seconds.
(§5) Result processing: the results were analyzed using Renilla luciferase activity to correct the firefly luciferase activity.

The next assay addresses T1, LXRα (Homo sapiens, UniProt Q13133).
T1 construct: expressed in transfected cells; host or cells: HEK293T
T1 sequence (Q13133 1-447): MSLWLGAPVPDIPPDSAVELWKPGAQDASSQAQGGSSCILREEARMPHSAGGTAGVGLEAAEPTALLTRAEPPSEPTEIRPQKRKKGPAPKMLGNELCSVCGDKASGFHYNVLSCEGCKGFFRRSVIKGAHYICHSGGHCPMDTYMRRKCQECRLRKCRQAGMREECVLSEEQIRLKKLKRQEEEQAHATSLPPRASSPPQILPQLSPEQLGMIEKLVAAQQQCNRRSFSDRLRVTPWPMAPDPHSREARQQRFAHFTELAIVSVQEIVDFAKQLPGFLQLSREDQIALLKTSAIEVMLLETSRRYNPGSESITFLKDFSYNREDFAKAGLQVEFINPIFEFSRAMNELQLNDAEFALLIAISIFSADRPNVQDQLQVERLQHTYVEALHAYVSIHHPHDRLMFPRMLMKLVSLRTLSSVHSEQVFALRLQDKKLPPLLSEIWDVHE
T1 sequence (P19793 1-462 partner): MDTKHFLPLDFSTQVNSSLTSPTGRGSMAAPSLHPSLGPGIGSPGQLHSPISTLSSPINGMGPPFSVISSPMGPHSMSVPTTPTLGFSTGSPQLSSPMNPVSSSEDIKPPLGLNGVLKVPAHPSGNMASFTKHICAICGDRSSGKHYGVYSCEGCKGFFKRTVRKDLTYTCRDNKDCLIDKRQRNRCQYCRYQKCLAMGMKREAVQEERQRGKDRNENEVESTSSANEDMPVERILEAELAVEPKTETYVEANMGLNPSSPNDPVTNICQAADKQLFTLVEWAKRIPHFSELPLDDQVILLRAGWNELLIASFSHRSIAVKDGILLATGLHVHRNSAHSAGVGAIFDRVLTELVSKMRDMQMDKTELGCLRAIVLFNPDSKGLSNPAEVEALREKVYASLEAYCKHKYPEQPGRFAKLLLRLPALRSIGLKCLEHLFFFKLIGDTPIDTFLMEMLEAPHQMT
The assay can be described thus: Liver X receptor activity test, dual-luciferase reporter gene in HEK293T cells (pSG5/hLXRα + hRXRα). Type of assay: cell-based. The following applies: for EC50 / LXRα % Agonist effect: agonist activity. The protocol:
as §1, §2, §3, §4, §5
(In general: A reporter such as luciferase makes a cellular process visible.)

The target in the next assay is T2, LXRβ (Homo sapiens, UniProt P55055).
T2 construct: expressed in transfected cells; host or cells: HEK293T
T2 sequence (P55055 1-460): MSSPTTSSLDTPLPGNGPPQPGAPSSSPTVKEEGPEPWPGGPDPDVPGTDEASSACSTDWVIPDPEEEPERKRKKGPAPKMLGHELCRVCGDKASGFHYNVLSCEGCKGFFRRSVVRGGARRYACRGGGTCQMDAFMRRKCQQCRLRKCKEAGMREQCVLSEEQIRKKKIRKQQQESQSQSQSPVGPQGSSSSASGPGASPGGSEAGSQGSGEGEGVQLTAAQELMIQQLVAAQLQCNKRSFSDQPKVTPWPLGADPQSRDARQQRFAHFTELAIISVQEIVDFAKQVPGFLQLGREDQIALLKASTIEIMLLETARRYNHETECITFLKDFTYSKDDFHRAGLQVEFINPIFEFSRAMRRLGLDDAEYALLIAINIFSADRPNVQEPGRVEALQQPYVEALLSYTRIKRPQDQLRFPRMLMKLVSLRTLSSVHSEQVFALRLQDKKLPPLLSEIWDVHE
T2 sequence (P19793 1-462 partner): T1 sequence (P19793 1-462 partner)
The assay can be described thus: Liver X receptor activity test, dual-luciferase reporter gene in HEK293T cells (pSG5/hLXRβ + hRXRα). Type of assay: cell-based. How it is done:
as §1, §2, §3, §4, §5

Where [1] appears, read: agonist activity, HEK293T reporter gene.
Where [2] appears, read: inverse agonist activity, HEK293T reporter gene.

Read-outs that look alike come from different tables or passages of the source.

`CC(C)[C@@H]1N(C(=O)OC(C)(C)C)CC[C@@]12C(=O)N(c1cccc(-c3ccc(CO)c(S(C)(=O)=O)c3)c1)c1ccccc12` [Compound 2a-2]: in the assay with liver X receptors, the “inverse activation of liver X receptors (in words)” value (“inverse activation” below) was “can inversely activate liver X receptors”.

For the compound `CC(C)[C@@H]1N(C(=O)OC(C)(C)C)CC[C@@]12C(=O)N(c1cccc(-c3ccc(CO)c(S(C)(=O)=O)c3)c1)c1ccccc12` [Compound 2a], in the assay on liver X receptors, the “inverse activation” value was “can inversely activate liver X receptors”.

As for `CC(C)[C@@H]1N(C(=O)C(F)(F)F)CC[C@@]12C(=O)N(c1cccc(-c3ccc(CO)c(S(C)(=O)=O)c3)c1)c1ccccc12` [Compound 2b], the “inverse activation” value in the assay with liver X receptors is listed as “can inversely activate liver X receptors”.

Turning to `CC(C)[C@@H]1N(C(=O)CC(C)(C)C)CC[C@@]12C(=O)N(c1cccc(-c3ccc(CO)c(S(C)(=O)=O)c3)c1)c1ccccc12` [Compound 2c], in the assay with liver X receptors, the “inverse activation” value was “can inversely activate liver X receptors”.

With `CC(C)[C@@H]1N(C(=O)C(C)(C)C)CC[C@@]12C(=O)N(c1cccc(-c3ccc(CO)c(S(C)(=O)=O)c3)c1)c1ccccc12` [Compound 2d], in the assay with liver X receptors, the “inverse activation” value is given as “can inversely activate liver X receptors”.

For orientation: EC50 means the concentration giving half of the maximal effect. As to `CC(C)[C@@H]1N(C(=O)OC(C)(C)C)CC[C@@]12C(=O)N(c1cccc(-c3ccc(C(=O)N(C)C)c(Cl)c3)c1)c1ccccc12` [Compound 3a], on LXRα, the EC50 turned out to be 6.92 µM and the “LXRα % Agonist effect” value turned out to be 53%. Also, in the assay on liver X receptors, the “activation of liver X receptors (in words)” value is recorded as “can activate liver X receptors”.

In the case of `CC(C)[C@@H]1N(C(=O)C(C)(C)C)CC[C@@]12C(=O)N(c1cccc(-c3ccc(C(=O)N(C)C)c(Cl)c3)c1)c1ccccc12` [Compound 3b], at LXRα, the EC50 turned out to be 3.67 µM and the “LXRα % Agonist effect” value is recorded as 76%. Also, at LXRβ (setting [1]), the EC50 was determined as 3040 nM and the “LXRβ % Agonist effect” value came to 50%. In the assay with liver X receptors, the “activation of liver X receptors (in words)” value is “can activate liver X receptors”.

On to `CC(C)[C@@H]1N(C(=S)NC(C)(C)C)CC[C@@]12C(=O)N(c1cccc(-c3ccc(C(=O)N(C)C)c(Cl)c3)c1)c1ccccc12` [Compound 3c], for which the “activation of liver X receptors (in words)” value with liver X receptors was “can activate liver X receptors”.

What is called IC50 is the point on the concentration scale where inhibition reaches its midpoint. For the compound `CC(C)[C@@H]1N(C(=O)CC(C)(C)C)CC[C@@]12C(=O)N(c1cccc(-c3ccc4ccn(C)c4c3)c1)c1ccccc12` [Compound 4c], the Emax at LXRβ (HEK-293T, 20 h, inverse agonist activity, HEK293T reporter gene, read-out: LXRβ % Inverse agonist effect) came out at 64%. For the same compound, the IC50 at LXRβ (setting [2]) is 10.1 µM.

For the compound `O=C(O)Cc1cccc(OCCCN(Cc2cccc(C(F)(F)F)c2Cl)CC(c2ccccc2)c2ccccc2)c1` [GW3965, reference compound], at LXRα, the EC50 was found to be 0.36 µM and the “LXRα % Agonist effect” value is listed as 100%. In addition, the “LXRβ % Agonist effect” value on LXRβ was found to be 100%. Further, on LXRβ (setting [1]), the EC50 stood at 210 nM.

In the case of `CCOC(=O)c1ccc(CN(Cc2ccc(-c3cccc(S(C)(=O)=O)c3)cc2)S(=O)(=O)c2c(C)cc(C)cc2C)o1` [SR9238, reference compound], the values for the IC50 on LXRα (inverse agonist activity) and on LXRβ (setting [2]) were 160 nM and 0.1 µM, respectively. Besides, on LXRα (inverse agonist activity), the “LXRα % Inverse agonist effect” value turned out to be 93%.
